According to patent publication US20260207569A1, “LPA1 ANTAGONISTS FOR TREATING INTERSTITIAL LUNG DISEASE” (Bristol-Myers Squibb Company, priority 2022, published 2026):
Entries after “also recorded” stand apart in the source; their conditions may differ.

Assays:
Assay type in all cases: in vivo, human
[1] = Phase 2 IPF cohort safety: adverse events, low blood pressure criteria, dose reductions
Experimental: (§1) A total of 278 participants with IPF were randomized and 276 participants were treated as of […] analyses data cut-off (4 Aug. 2022). Male and female participants ≥40 years of age with IPF and percent predicted forced vital capacity (ppFVC) ≥40% and percent predicted DLCO (ppDLCO) ≥25%; diagnosed within 7 years of screening; having a centrally-read chest HRCT obtained at screening that was consistent with UIP or probable UIP, or having a lung biopsy consistent with UIP, were eligible to enter the study. The mean baseline ppFVC for all subjects was 76.5%. In the primary IPF cohort, participants were randomized (1:1:1) to receive 30 mg or 60 mg Compound A or placebo (PBO) twice daily for 26 weeks. Participants were stratified by standard of care (SoC) IPF therapy (pirfenidone versus nintedanib versus none) and region (Japan versus Rest of World) at randomization.
Patient experiences any of the following, confirmed by retest within 15 minutes: • Seated systolic blood pressure <85 mmHg • Seated diastolic blood pressure <55 mmHg • Orthostatic hypotension
Patient experiences symptoms that, in the investigator's opinion, could be associated with a reduction in blood pressure and also experiences at least one of the following, confirmed by retest within 15 minutes: • Seated systolic blood pressure <100 mmHg or seated diastolic blood pressure <60 mmHg • Decrease of seated systolic blood pressure of ≥20 mmHg from the previous visit or decrease of seated diastolic blood pressure of ≥10 mmHg from the previous visit • Orthostatic hypotension • Orthostatic tachycardia

[2] = test system: participants with IPF; assay: Phase 2 IPF cohort efficacy: rate of change in ppFVC / FVC to Week 26
Experimental: as §1
The primary objective of the study was to determine the rate of change in ppFVC from baseline to Week 26. The primary objective was evaluated with a two estimand framework to handle the intercurrent event of dose reduction to 10 mg BID or matching PBO when pre-specified low BP criteria is met. The primary estimand is adopted to estimate treatment effect when dose reduction is implemented. The supplementary estimand is adopted to estimate the effect of treatment without dose reduction.
Analysis Strategy: The primary estimand was to evaluate the efficacy of Compound A at 30 mg or 60 mg twice daily, compared to PBO in IPF participants who met the enrollment criteria, with or without use of SoC. The rate of decline in ppFVC (%) from baseline to Week 26 was compared using the difference between each dose and PBO as a population level summary regardless of dose reduction or treatment discontinuation for any reason (treatment policy strategy).
Analysis Strategy: The supplementary estimand for the primary objective is to evaluate the efficacy of Compound A at 30 mg or 60 mg twice daily without dose reduction, compared to the PBO in IPF subjects who met the enrollment criteria, with or without use of SoC. The rate of decline in ppFVC (%) from baseline to Week 26 has been compared using the difference between each dose and PBO as a population level summary regardless of treatment discontinuation for any reason (treatment policy strategy). In the event of dose reduction, data collected after dose reduction will not be considered relevant to the treatment effect of interest and therefore, will be treated as missing (while-on-treatment strategy).

[3] = test system: participants with PPF; assay: Phase 2 PPF cohort efficacy: rate of FVC decline (% predicted) / FVC to Week 26; conditions: for Mean observed change from baseline in ppFVC and FVC vs placebo: to week 26
Experimental: A total of 123 participants with PPF were randomized. Participants (age ≥21 years) were randomized (1:1:1) to receive 30 mg or 60 mg Compound A or PBO twice daily for 26 weeks. […] Immunosuppressive medications (mycophenolate mofetil, mycophenolic acid, azathioprine and/or tacrolimus) were permitted only if dosing is stable for ≥6 months prior to screening. If receiving antifibrotic agents pirfenidone or nintedanib, patients had to receive a stable dosage for ≥3 months prior to screening and during the screening period; if not receiving pirfenidone or nintedanib, patients had to be naive to both drugs or not have received either 4 weeks prior to Day 1. A total of 47 (38.2%) subjects were receiving antifibrotic treatment (with or without immunosuppression therapy). Of those subjects, 34 were being treated with nintedanib and 13 with pirfenidone. Participants were stratified by usual interstitial pneumonia (UIP) pattern (presence versus absence) and background therapy (antifibrotics +/−ILD-targeted immunosuppression versus ILD-targeted immunosuppression alone versus none). UIP pattern was present in 52% of subjects and unclassifiable ILD was he most common disease categorization.
The study was not powered to detect statistical significance (no formal testing). No target effect size was defined in the study design. There were two estimand approaches for analysis: • Treatment Policy: Effect of treatment with dose reduction as part of treatment regimen. • While-On Treatment: Effect of treatment without dose reduction.
The main efficacy endpoint, rate of FVC decline (in % of predicted) from baseline to wk-26 in the PPF cohort, was estimated using a linear mixed-effects model utilizing all FVC timepoints. It was analyzed under a primary estimand (utilizing all data, treatment policy strategy), and under supplementary estimand (utilizing all data up to the point of dose reduction, while-on-treatment strategy). Analysis was performed in the overall population as well as in sub-groups by 1) background anti-fibrotic treatment or not 2) UIP radiographic pattern (presence or not). The mean baseline ppFVC was 66.7% for the PPF cohort.

[4] = Active Total (30 mg and 60 mg groups)

With CCCN(C)C(=O)OCc1c(-c2ccc(O[C@H]3CCC[C@H](C(=O)O)C3)c(C)n2)nnn1C [Compound A, (1S,3S)-3-((2-methyl-6-(1-methyl-5-(((methyl(propyl)carbamoyl)-oxy)methyl)-1H-1,2,3-triazol-4-yl)pyridin-3-yl)oxy)cyclohexane-1-carboxylic acid] the “Dose reductions to 10 mg BID due to protocol-defined low BP criteria, %” value ([1]; 30 mg BID) was 7.7%, the “Dose reductions to 10 mg BID due to protocol-defined low BP criteria, %” value ([1]; 60 mg BID) was 6.5% and the “Risk of orthostatic intolerance, orthostatic hypotension or low BP criteria vs PBO” value ([1]; 60 mg BID) was “lowest frequencies of orthostatic intolerance, orthostatic hypotension, or pre-specified symptomatic or asymptomatic low BP criteria; also recorded: not associated with any increased risk of orthostatic intolerance, orthostatic hypotension, orthostatic tachycardia, or symptomatic or asymptomatic low BP”. The “Subjects discontinuing study treatment due to a TEAE, %” value [1, 4] was “(8.2) %”, the “Subjects who died due to a TEAE, %” value [1, 4] was “(3.8) %” and the “Subjects who died, %” value [1, 4] was “(4.9) %”. The “Subjects with at least one AESI, %” value [1, 4] was “(14.7) %”, the “Subjects with at least one TEAE related to the study treatment, %” value [1, 4] was “(26.1) %” and the “Subjects with at least one TEAE, %” value [1, 4] was “(75.0) %”. The “Subjects with at least one TESAE, %” value [1, 4] was “(10.9) %”, the “Treatment differences in rates of change in ppFVC with and without background antifibrotic” value ([2]; IPF cohort) was “consistent between both groups” and the “Efficacy vs PBO” value ([2]; IPF, 30 mg BID, overall population) was “did not demonstrate efficacy compared to PBO”. The “Response by background SoC subgroup vs PBO” value ([2]; IPF, 60 mg BID, SoC (nintedanib or pirfenidone) and no SoC) was “favorable responses on the primary endpoint; also recorded: favorable efficacy; also recorded: favorable impact on FVC compared with PBO when used alone or on background therapy with nintedanib or pirfenidone”, the “Treatment response (rate of decline of ppFVC and FVC) vs PBO” value ([2]; IPF, 60 mg BID, Week 26, overall population) was “demonstrated favorable treatment responses versus PBO” and the “Slope difference (SE) in rate of decline in FVC, 60 mg - PBO” value ([2]; IPF, 60 mg BID, baseline to Week 26, supplementary estimand, Overall) was 61.4 (29.35) mL. For the same compound, the “Relative treatment benefit (ppFVC decline) compared to PBO” value (shortened to “Relative treatment benefit”) ([2]; IPF, 60 mg BID, primary estimand, not on background SoC) was 113%, the “Relative treatment benefit” value ([2]; IPF, 60 mg BID, primary estimand, on background SoC) was 39% and the “Relative treatment benefit” value ([2]; IPF, 60 mg BID, supplementary estimand, not on background SoC) was 123%. The “Relative treatment benefit” value ([2]; IPF, 60 mg BID, supplementary estimand, on background SoC) was 44%, the “Treatment differences by UIP pattern” value ([3]; PPF cohort) was “treatment differences were seen in the PPF cohort independent of UIP pattern presence or absence” and the “Treatment differences in rates of change in ppFVC by background antifibrotic use” value ([3]; PPF cohort) was “consistent with or without background antifibrotic use”. For the same compound, the “Dose response of efficacy” value ([3]; PPF cohort, 30 mg and 60 mg BID) was “Clear dose response”, the “Consistency of efficacy across sub-groups” value ([3]; PPF cohort, background antifibrotics, UIP pattern) was “Efficacy consistent in all sub-groups” and the “Rate of decline in FVC (% Predicted), slope” value (shortened to “Rate … (% Predicted), slope”) ([3]; PPF, 30 mg BID, UIP absent, supplementary estimand) was −2.24 % Predicted. For the same compound, the “Rate … (% Predicted), slope” value ([3]; PPF, 30 mg BID, UIP present, primary estimand) was −3.07 % Predicted, the “Rate … (% Predicted), slope” value ([3]; PPF, 30 mg BID, not receiving antifibrotic treatment, supplementary estimand) was −2.83 % Predicted and the “Rate … (% Predicted), slope” value ([3]; PPF, 30 mg BID, overall population, primary estimand (treatment policy), 26 weeks) was −2.7 % Predicted. For the same compound, the “Rate … (% Predicted), slope” value ([3]; PPF, 30 mg BID, receiving antifibrotic treatment, supplementary estimand) was −1.8 % Predicted, the “Mean observed change from baseline in ppFVC and FVC vs placebo” value ([3]; PPF, 30 mg BID) was “shows more significant improvement after week 20” and the “Rate … (% Predicted), slope” value ([3]; PPF, 60 mg BID, UIP absent, supplementary estimand) was −0.7 % Predicted. The “Rate … (% Predicted), slope” value ([3]; PPF, 60 mg BID, UIP present, primary estimand) was −1.46 % Predicted, the “Rate … (% Predicted), slope” value ([3]; PPF, 60 mg BID, not receiving antifibrotic treatment, supplementary estimand) was −1.56 % Predicted and the “Rate … (% Predicted), slope” value ([3]; PPF, 60 mg BID, overall population, supplementary estimand (while on treatment), 26 weeks) was −1.3 % Predicted. The “Rate … (% Predicted), slope” value ([3]; PPF, 60 mg BID, receiving antifibrotic treatment, supplementary estimand) was −1.1 % Predicted, the “Mean observed change from baseline in ppFVC and FVC vs placebo” value ([3]; PPF, 60 mg BID) was “maintains the improvement over placebo through the end of week 26” and the “Slope difference, 60 mg − placebo” value ([3]; PPF, UIP absent, supplementary estimand) was 3.8 % Predicted. For the same compound, the “Slope difference, 30 mg − placebo” value ([3]; PPF, UIP present, primary estimand) was 0.88 % Predicted, the “Slope difference (S.E.), 60 mg − placebo” value ([3]; PPF, overall population, primary estimand (treatment policy)) was 3.2 % Predicted and the “Slope difference (S.E.), 60 mg − placebo” value ([3]; PPF, overall population, supplementary estimand (while on treatment)) was 2.9 % Predicted.
